# Earlier results as cited in patent publication US20110071125A1, “SUBSTITUTED PHENYLAMINO-BENZENE DERIVATIVES USEFUL FOR TREATING HYPER-PROLIFERATIVE DISORDERS AND DISEASES ASSOCIATED WITH MITOGEN EXTRACELLULAR KINASE ACTIVITY” (priority 2007, published 2011).
# System: colon cancer
# Conditions: oral treatment, mouse models, ref. [18]
smiles,measurement,value
O=C(NOCC1CC1)c1ccc(F)c(F)c1Nc1ccc(I)cc1Cl [PD184352],colon cancer growth in vivo,inhibit colon cancer growth in vivo
